Patent publication US20100041089A1, “IMPROVED METHOD FOR DETECTING CHEMICAL […]” (priority 2006, published 2010)

System: yeast genes (expressed mRNA)
Test: DNA chip measurement of expressed mRNA of yeast genes after culture with a toxic chemical substance
Assay type: cell-based, Saccharomyces cerevisiae S288C
Protocol: Yeast (Saccharomyces cerevisiae S288C (a SUC2mal mel gap2 CUP1)) were cultured at 25° C. on YPD medium (yeast extract 1%, polypeptone 2%, glucose 2%). One of toxic chemical substances was added to the cell at logarithmic growth phase, and the cell was further cultured for two hours. Cell was cultured without any chemical substance in the same condition, and was used as a control. Concentrations of the chemical substances were defined to inhibit the growth of the yeast but not lead to death.
After the completion of cultivation, the culture was centrifuged to collect the cells. To the cells, sodium acetate buffer (50 mM sodium acetate, 10 mM EDTA, 1% SDS) was added, and the mixture was shaken at 65° C. for five minutes, followed by returning to room temperature, and obtaining the supernatant, which procedure was repeated two times. To the supernatant, ½ amount of a solution of phenol/chloroform (1:1) was added, and the mixture was centrifuged to give a supernatant, an equal amount of chloroform was added, and the mixture was centrifuged to give a supernatant. To the supernatant, an equal amount of isopropanol containing 0.3 M sodium acetate was added, and the mixture was allowed to stand at room temperature for 30 minutes, after which the mixture was centrifuged to give sediment of the whole RNAs. Seventy % ethanol was added to the sediment, and the mixture was again centrifuged to give sediment, which was then dried and dissolved in water. mRNA was isolated from the whole RNAs as followings. In view of the fact that a poly A chain is attached to the 3′ terminus of mRNA, a polynucleotide having a poly T structure which was immobilized on the surface of latex beads was used to trap the mRNA, and then the mRNA was washed and eluted with spine column (Oligotex-dT30<Super>mRNA Purification Kit, Takara). Reverse transcription of the mRNA was conducted with a reverse transcriptase (Super Script II Reverse Transcriptase; catalogue No. 18064-014, GibcoBRL) using fluorescence-labeled nucleotides to give cDNAs that were introduced with Cy3-dUTP or Cy5-dUTP during the reverse transcription.
The labeled cDNAs were dissolved in TE buffer (10 mM Tris-HCl/1 mM EDTA, pH 8.0), and the solution was dropped on the DNA chip containing the whole genes of yeast (DNA Chip Research Inc. Japan) so that the cDNAs were hybridized on the DNA chip at 65° C. for over 12 hours. The fluoresces intensity of the DNA chip was read with a scanner, and the ratio relative to the fluorescence intensity resulting from the absence of chemical substance was estimated as the following, which is shown in Tables 1 to 9.
In the Tables, “Intensity” indicated in the rightmost column is a value of the level of expressed mRNA of each gene in control cells as divided by the average level of the expressions of the whole genes. A gene of which mRNA level is lower in control, and is higher in cases of addition of chemical substance, is especially useful in the detection of toxic substances.
Here, when a ratio of an amount of mRNA expressed in the presence of the chemical substance to an amount of mRNA expressed in the absence of the chemical substance is two or more, then it is considered significant.

C[S+](C)[O-] [(15), Dimethyl sulfoxide]
The level of expressed mRNA in the presence of chemical substance/The level of expressed mRNA in the absence of chemical substance, yeast gene YDL067C (gene YDL067C (mitochondria-located protein gene), yeast cultured two hours with chemical substance, DNA chip fluorescence ratio to control): 0.7 | The level of expressed mRNA in the presence of chemical substance/The level of expressed mRNA in the absence of chemical substance, yeast gene YDR079W (gene YDR079W (mitochondria-located protein gene), yeast cultured two hours with chemical substance, DNA chip fluorescence ratio to control): 0.6 | The level of expressed mRNA in the presence of chemical substance/The level of expressed mRNA in the absence of chemical substance, yeast gene YGR062C (gene YGR062C (mitochondria-located protein gene), yeast cultured two hours with chemical substance, DNA chip fluorescence ratio to control): 0.5 | The level of expressed mRNA in the presence of chemical substance/The level of expressed mRNA in the absence of chemical substance, yeast gene YJL096W (gene YJL096W (mitochondria-located protein gene), yeast cultured two hours with chemical substance, DNA chip fluorescence ratio to control): 1.0 | The level of expressed mRNA in the presence of chemical substance/The level of expressed mRNA in the absence of chemical substance, yeast gene YJL180C (gene YJL180C (mitochondria-located protein gene), yeast cultured two hours with chemical substance, DNA chip fluorescence ratio to control): 0.6 | level of expressed mRNA in the presence of chemical substance / level in the absence of chemical substance (yeast gene YAL018C, cultured two hours with the chemical substance): 6.9 | level of expressed mRNA in the presence of chemical substance / level in the absence of chemical substance (yeast gene YAR047C, cultured two hours with the chemical substance): 0.5 | level of expressed mRNA in the presence of chemical substance / level in the absence of chemical substance (yeast gene YAR064W, cultured two hours with the chemical substance): 1.9 | level of expressed mRNA in the presence of chemical substance / level in the absence of chemical substance (yeast gene YBL044W, cultured two hours with the chemical substance): 0.7 | level of expressed mRNA in the presence of chemical substance / level in the absence of chemical substance (yeast gene YBR012C, cultured two hours with the chemical substance): 1.1 | The level of expressed mRNA in the presence of chemical substance/The level of expressed mRNA in the absence of chemical substance (yeast gene YBR047W, cultured two hours with substance): 0.8 | level of expressed mRNA in the presence of chemical substance / level in the absence of chemical substance (yeast gene YBR066C, cultured two hours with the chemical substance): 0.4 | The level of expressed mRNA in the presence of chemical substance/The level of expressed mRNA in the absence of chemical substance (yeast gene YBR100W, cultured two hours with the chemical substance): 1.3 | level of expressed mRNA in the presence of chemical substance / level in the absence of chemical substance (yeast gene YBR124W, cultured two hours with the chemical substance): 1.0 | level of expressed mRNA in the presence of chemical substance / level in the absence of chemical substance (yeast gene YBR162C, cultured two hours with the chemical substance): 1.9 | The level of expressed mRNA in the presence of chemical substance/The level of expressed mRNA in the absence of chemical substance (yeast gene YBR273C, cultured two hours with substance): 0.8 | level of expressed mRNA in the presence of chemical substance / level in the absence of chemical substance (yeast gene YBR287W, cultured two hours with the chemical substance): 1.3 | The level of expressed mRNA in the presence of chemical substance/The level of expressed mRNA in the absence of chemical substance (yeast gene YCL009C): 6.5 | The level of expressed mRNA in the presence of chemical substance/The level of expressed mRNA in the absence of chemical substance (yeast gene YCL040W, cultured for two hours with substance): 3.4 | The level of expressed mRNA in the presence of chemical substance/The level of expressed mRNA in the absence of chemical substance (yeast gene YCL049C, cultured two hours with substance): 1.4 | level of expressed mRNA in the presence of chemical substance / level in the absence of chemical substance (yeast gene YCL056C, cultured two hours with the chemical substance): 1.7 | level of expressed mRNA in the presence of chemical substance / level in the absence of chemical substance (yeast gene YCR007C, cultured two hours with the chemical substance): 0.8 | The level of expressed mRNA in the presence of chemical substance/The level of expressed mRNA in the absence of chemical substance (yeast gene YCR030C, cultured two hours with the chemical substance): 1.3 | The level of expressed mRNA in the presence of chemical substance/The level of expressed mRNA in the absence of chemical substance (yeast gene YCR082W, cultured two hours with substance): 1.6 | The level of expressed mRNA in the presence of chemical substance/The level of expressed mRNA in the absence of chemical substance (yeast gene YCR107W, cultured for two hours with substance): 4.8 | level of expressed mRNA in the presence of chemical substance / level in the absence of chemical substance (yeast gene YDL046W, cultured two hours with the chemical substance): 2.3 | The level of expressed mRNA in the presence of chemical substance/The level of expressed mRNA in the absence of chemical substance (yeast gene YDL110C, cultured two hours with substance): 1.3 | The level of expressed mRNA in the presence of chemical substance/The level of expressed mRNA in the absence of chemical substance (yeast gene YDL222C, cultured two hours with substance): 7.1 | The level of expressed mRNA in the presence of chemical substance/The level of expressed mRNA in the absence of chemical substance (yeast gene YDR031W, cultured two hours with substance): 0.8 | The level of expressed mRNA in the presence of chemical substance/The level of expressed mRNA in the absence of chemical substance (yeast gene YDR032C, cultured two hours with substance): 1.3 | level of expressed mRNA in the presence of chemical substance / level in the absence of chemical substance (yeast gene YDR090C, cultured two hours with the chemical substance): 1.1 | level of expressed mRNA in the presence of chemical substance / level in the absence of chemical substance (yeast gene YDR128W, cultured two hours with the chemical substance): 1.4 | level of expressed mRNA in the presence of chemical substance / level in the absence of chemical substance (yeast gene YDR133C, cultured two hours with the chemical substance): 0.6 | level of expressed mRNA in the presence of chemical substance / level in the absence of chemical substance (yeast gene YDR250C, cultured two hours with the chemical substance): 0.7 | level of expressed mRNA in the presence of chemical substance / level in the absence of chemical substance (yeast gene YDR278C, cultured two hours with the chemical substance): 0.7 | level of expressed mRNA in the presence of chemical substance / level in the absence of chemical substance (yeast gene YDR281C, cultured two hours with the chemical substance): 0.3 | level of expressed mRNA in the presence of chemical substance / level in the absence of chemical substance (yeast gene YDR366C, cultured two hours with the chemical substance): 1.4 | The level of expressed mRNA in the presence of chemical substance/The level of expressed mRNA in the absence of chemical substance (yeast gene YDR434W, cultured two hours with substance): 1.3 | The level of expressed mRNA in the presence of chemical substance/The level of expressed mRNA in the absence of chemical substance (yeast gene YDR476C, cultured two hours with substance): 2.2
